From publication PMC10830684, “Effect of Oregon grape root extracts on P-glycoprotein mediated transport in in vitro cell lines” (Journal of Pharmacy & Pharmaceutical Sciences, 2024)

Experiments:
[1] = biological target: P-glycoprotein (Homo sapiens, UniProt P08183); test: Effect on 3H-CsA and 3H-digoxin transport in Caco-2 cells; conditions: for Papp (B to A) of 3H-CsA / Papp (B to A) of 3H-digoxin: Caco-2; for Papp (B to A) of 3H-CsA: 0.5 µM 3H-CsA
[2] = set-up: method as in PMID 16086103; conditions: renal-transplant patients; co-administration of 200 mg berberine three times a day for 12 days; cited from earlier work
[3] = tested on: MDCKII wild-type cells; test: MTT cytotoxicity assay in MDCKII wild-type cells; assay type: cell-based, Canine; conditions: MDCKII-WT cells, 4 hours exposure
Excerpt: (§1) We initiated cytotoxicity experiments with the Caco-2, MDCKII-MDR1 and MDCKII-wild type cells on Day 7 (Caco-2) and Day 4 (MDCKII-MDR1 and MDCKII-wild type) after the initial plating of the cells at 2.5 × 10^3 cells/well in 48-well plates (Becton Dickinson, Franklin Lakes, NJ, USA). See details of preparation for the cytotoxicity experiments in Supplementary Material.
(§2) We initiated cytotoxicity experiments with the Caco-2, MDCKII-MDR1 and MDCKII-wild type cells on Day 7 (Caco-2) and Day 4 (MDCKII-MDR1 and MDCKII-wild type) after the initial plating of the cells at 2.5x10^3 cells/well in 48-well plates (Becton Dickinson, Franklin Lakes, NJ, USA). Stock solutions of 10 mM berberine or berbamine were prepared by dissolving the compounds in DMSO (berberine) or distilled water (berbamine). […] The final concentration of DMSO was 0.003% (v/v), 0.03% (v/v), 0.3% (v/v), 1% (v/v), 1.5% (v/v), and 3% (v/v) DMSO/culture medium for 0.3 μM, 3 μM, 30 μM, 100 μM, ,150 μM, and 300 μM, respectively. The final concentration of ethanol was 0.15% (v/v) ethanol/culture medium. Ketoconazole (75 µM) was used as a positive control and no treatment (medium alone) was used as a negative control for each experiment.
(§3) The LDH enzymatic activities were assayed using the method of Mitchell et al.(1). […] Enzyme leakage into the medium was expressed as the percentage of total cellular LDH. The MTT (3-(4,5-dimethythiazole-2yl)-2,5-diphenyl tetrazolium bromide) reduction assay was done according to Mosmann (2). This assay was conducted immediately with the same cells used in the LDH study. The results were expressed as the percentage of negative controls.

[4] = tested on: MDCKII wild-type cells; test: Effect on 3H-CsA and 3H-digoxin transport in MDCKII wild-type cells; conditions: MDCKII-WT; for Papp (B to A) of 3H-CsA: 0.5 µM 3H-CsA; for Papp (B to A) of 3H-digoxin: 0.5 µM 3H-digoxin
[5] = biological target: P-glycoprotein (MDCKII-MDR1 cells) (Homo sapiens, UniProt P08183); test: Effect on 3H-CsA and 3H-digoxin transport in MDCKII-MDR1 cells; conditions: for Papp (B to A) of 3H-CsA: 0.5 µM 3H-CsA; for Papp (B to A) of 3H-digoxin: 0.5 µM 3H-digoxin
Sequence of P-glycoprotein (MDCKII-MDR1 cells) (P08183 whole entry): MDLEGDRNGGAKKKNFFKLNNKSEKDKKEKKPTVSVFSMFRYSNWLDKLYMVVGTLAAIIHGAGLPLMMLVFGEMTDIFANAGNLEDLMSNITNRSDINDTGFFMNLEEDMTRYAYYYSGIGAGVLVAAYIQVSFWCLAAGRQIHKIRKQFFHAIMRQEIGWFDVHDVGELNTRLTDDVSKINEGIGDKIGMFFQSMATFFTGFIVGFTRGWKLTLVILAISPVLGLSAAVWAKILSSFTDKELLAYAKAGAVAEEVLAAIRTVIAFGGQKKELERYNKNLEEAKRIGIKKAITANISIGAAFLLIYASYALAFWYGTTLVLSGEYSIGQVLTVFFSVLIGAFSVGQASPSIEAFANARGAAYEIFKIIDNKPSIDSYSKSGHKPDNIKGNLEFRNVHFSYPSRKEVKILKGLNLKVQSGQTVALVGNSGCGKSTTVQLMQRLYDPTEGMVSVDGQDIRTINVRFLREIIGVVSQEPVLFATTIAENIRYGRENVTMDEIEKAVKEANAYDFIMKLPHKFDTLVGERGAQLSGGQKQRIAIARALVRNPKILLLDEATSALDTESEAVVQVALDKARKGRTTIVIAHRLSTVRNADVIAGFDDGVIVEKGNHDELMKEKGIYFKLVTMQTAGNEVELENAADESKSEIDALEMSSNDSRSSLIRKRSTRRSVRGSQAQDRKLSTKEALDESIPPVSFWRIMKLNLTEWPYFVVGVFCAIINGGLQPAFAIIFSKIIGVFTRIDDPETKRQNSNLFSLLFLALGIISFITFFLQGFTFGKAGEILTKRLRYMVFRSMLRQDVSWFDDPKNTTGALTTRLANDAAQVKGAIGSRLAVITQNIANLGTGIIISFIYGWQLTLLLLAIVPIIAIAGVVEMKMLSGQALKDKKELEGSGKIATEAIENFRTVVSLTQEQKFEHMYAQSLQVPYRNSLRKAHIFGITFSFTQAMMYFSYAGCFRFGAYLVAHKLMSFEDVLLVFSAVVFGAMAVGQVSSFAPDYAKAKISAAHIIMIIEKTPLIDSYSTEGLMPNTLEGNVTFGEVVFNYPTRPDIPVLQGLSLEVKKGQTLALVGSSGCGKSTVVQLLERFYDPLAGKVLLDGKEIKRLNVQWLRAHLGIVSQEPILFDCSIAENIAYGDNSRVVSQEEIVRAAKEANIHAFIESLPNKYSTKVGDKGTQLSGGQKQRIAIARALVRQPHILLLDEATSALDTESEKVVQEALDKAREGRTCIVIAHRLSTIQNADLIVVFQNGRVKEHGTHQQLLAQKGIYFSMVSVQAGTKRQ

[6] = tested on: Caco-2 cells; test: LDH leakage cytotoxicity assay in Caco-2 cells; assay type: cell-based, human; conditions: 4 hours exposure
Excerpt: as §1
We initiated cytotoxicity experiments with the Caco-2, MDCKII-MDR1 and MDCKII-wild type cells on Day 7 (Caco-2) and Day 4 (MDCKII-MDR1 and MDCKII-wild type) after the initial plating of the cells at 2.5x10^3 cells/well in 48-well plates (Becton Dickinson, Franklin Lakes, NJ, USA). Stock solutions of 10 mM berberine or berbamine were prepared by dissolving the compounds in DMSO (berberine) or distilled water (berbamine).
as §3

[7] = tested on: MDCKII-MDR1 cells; test: MTT cytotoxicity assay in MDCKII-MDR1 cells; assay type: cell-based, Canine; conditions: 4 hours exposure
Excerpt: as §1, §2, §3

Sequence of P-glycoprotein (P08183 whole entry): as above

COc1ccc2cc3[n+](cc2c1OC)CCc1cc2c(cc1-3)OCO2.[Cl-] [Berberine, Berberine chloride]
Papp (B to A) of 3H-CsA ([1]; 10 µM compound): 1.79 ± 0.16 x 10^−6 cm/s
Papp (B to A) of 3H-digoxin ([1]; 10 µM compound, 0.5 µM 3H-digoxin): 2.37 ± 0.26 x 10^−6 cm/s
Papp (B to A) of 3H-CsA ([1]; 30 µM compound): 1.52 ± 0.14 x 10^−6 cm/s
Papp (B to A) of 3H-digoxin ([1]; 30 µM compound, 0.5 µM 3H-digoxin): 2.26 ± 0.29 x 10^−6 cm/s
Papp (B to A) of 3H-CsA ([1]; 100 µM compound): 1.60 ± 0.45 x 10^−6 cm/s
Papp (B to A) of 3H-digoxin ([1]; 100 µM compound, 0.5 µM 3H-digoxin): 2.93 ± 0.07 x 10^−6 cm/s
lowest concentration with significant decrease of B to A transport of 0.5 µM 3H-CsA ([1]; Caco-2 cells): 10 µM
effect on digoxin transport ([1]; Caco-2 cells, up to 30 μM, 0.5 µM 3H-digoxin): no significant effects
increase of mean area under the curve of CsA [2]: 34.5%
MTT assay ([3]; 0.03 µM): □ (%MTT reduction is not significantly decreased compared with the negative control)
MTT assay ([3]; 3.0 µM): □ (%MTT reduction is not significantly decreased compared with the negative control)
MTT assay ([3]; 100 µM): □ (%MTT reduction is not significantly decreased compared with the negative control)
MTT assay ([3]; 150 µM): □ (%MTT reduction is not significantly decreased compared with the negative control)
MTT assay ([3]; 300 µM): 24.82 ± 15.91%
Papp (B to A) of 3H-CsA ([4]; 10 µM compound): 4.07 ± 0.56 x 10^−6 cm/s
Papp (B to A) of 3H-digoxin ([4]; 10 µM compound): 7.55 ± 0.46 x 10^−6 cm/s
Papp (B to A) of 3H-CsA ([4]; 30 µM compound): 4.34 ± 0.29 x 10^−6 cm/s
Papp (B to A) of 3H-digoxin ([4]; 30 µM compound): 6.95 ± 0.71 x 10^−6 cm/s
Papp (B to A) of 3H-CsA ([5]; 10 µM compound): 5.34 ± 1.56 x 10^−6 cm/s
Papp (B to A) of 3H-digoxin ([5]; 10 µM compound): 1.56 ± 0.43 x 10^−6 cm/s
Papp (B to A) of 3H-CsA ([5]; 30 µM compound): 5.17 ± 0.92 x 10^−6 cm/s
Papp (B to A) of 3H-digoxin ([5]; 30 µM compound): 1.57 ± 0.81 x 10^−6 cm/s
LDH assay ([6]; 150 µM): 25.93 ± 4.78%
LDH assay ([6]; 300 µM): 44.88 ± 2.09%
MTT assay ([7]; 0.03 µM): □ (%MTT reduction is not significantly decreased compared with the negative control)
MTT assay ([7]; 3.0 µM): □ (%MTT reduction is not significantly decreased compared with the negative control)
MTT assay ([7]; 100 µM): □ (%MTT reduction is not significantly decreased compared with the negative control)
MTT assay ([7]; 150 µM): □ (%MTT reduction is not significantly decreased compared with the negative control)
MTT assay ([7]; 300 µM): □ (%MTT reduction is not significantly decreased compared with the negative control)
